# Values of other authors in US20150080442A1, “TRANSMUCOSAL DRUG DELIVERY SYSTEM” (PHARMACEUTICAL PRODUCTIONS INC., priority 2013, published 2015).
# Key:
# [1] = pH 6.8
mean absolute oral bioavailability,Structure (SMILES),nicotine in the free base form [1]
,CN1CCCC1c1cccnc1 (centres unmarked) [nicotine],about 10%
approximately 40%,CN(C)CCc1c[nH]c2ccc(C[C@H]3COC(=O)N3)cc12 [Zolmitriptan],
